Assay results published in PubChem BioAssay AID248 (DTP/NCI, 2004).
Several values for one entry are separate records, joined by “and”; a condition that tells them apart may be missing. Equal entries are not always repeated. Toxic doses and inconclusive results are not listed. Rule as the data show it: active = T/C of 150% or more; inactive = T/C below 125%.

Tested on: L1210 leukemia ip in BDF1 mice, survival T/C
Assay: NCI In Vivo Anticancer Drug Screen. Data for tumor model L1210 Leukemia (intraperitoneal) in B6D2F1 (BDF1) mice
Conditions: endpoint: mean survival time, higher = longer survival
In short: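 Tumor was transplanted into mice, which were then dosed with test compound or vehicle alone. Survival was recorded for each group, and the treated figure was expressed relative to the control figure.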

[1] = dose: 100.0 mg/kg/injection, schedule: Q01DX009 (ip), vehicle: saline
[2] = dose: 100.0 mg/kg/injection, schedule: Q04DX003 (ip), vehicle: saline
[3] = dose: 200.0 mg/kg/injection, schedule: Q01DX009 (ip), vehicle: saline

Measured: T/C

COCC(C)CNC(=S)Nc1ccccc1 (centres undefined)
inactive: dose: 50.0 mg/kg/injection, schedule: Q01DX001 (ip), vehicle: carboxymethylcellulose (CMC) 108 % of control | dose: 100.0 mg/kg/injection, schedule: Q01DX001 (ip), vehicle: carboxymethylcellulose (CMC) 103 % of control | dose: 200.0 mg/kg/injection, schedule: Q01DX001 (ip), vehicle: carboxymethylcellulose (CMC) 103 % of control | dose: 400.0 mg/kg/injection, schedule: Q01DX001 (ip), vehicle: carboxymethylcellulose (CMC) 105 % of control

Cc1ccc(Nc2cc(=S)nc(N)[nH]2)cc1
inactive: dose: 100.0 mg/kg/injection, schedule: Q01DX Z (ip), vehicle: methylcellulose (MC) 93 % of control | dose: 200.0 mg/kg/injection, schedule: Q01DX Z (ip), vehicle: methylcellulose (MC) 86 % of control

COc1ccc(OC)c2ccccc12
inactive: dose: 50.0 mg/kg/injection, schedule: Q01DX005 (ip), vehicle: saline with Tween-80 101 % of control | dose: 100.0 mg/kg/injection, schedule: Q01DX005 (ip), vehicle: saline with Tween-80 101 % of control | dose: 200.0 mg/kg/injection, schedule: Q01DX005 (ip), vehicle: saline with Tween-80 111 % of control | dose: 400.0 mg/kg/injection, schedule: Q01DX005 (ip), vehicle: saline with Tween-80 98 % of control

BrC1CCC2C(CCC(Br)C23OCCO3)C12OCCO2 (centres undefined)
inactive: [1] 91 % of control | [2] 89 % of control | [3] 98 % of control | dose: 400.0 mg/kg/injection, schedule: Q01DX009 (ip), vehicle: saline 91 % of control | dose: 400.0 mg/kg/injection, schedule: Q04DX003 (ip), vehicle: saline 108 % of control

OC1OC(COC(c2ccccc2)(c2ccccc2)c2ccccc2)C(O)C(O)C1O (centres undefined)
inactive: dose: 50.0 mg/kg/injection, schedule: Q01DX009 (ip), vehicle: saline 95 % of control | dose: 100.0 mg/kg/injection, schedule: Q01DX009 (ip), vehicle: saline with Tween-80 100 % of control and 102 % of control | [1] 98 % of control | dose: 100.0 mg/kg/injection, schedule: Q04DX003 (ip), vehicle: saline with Tween-80 102 % of control | [2] 102 % of control | dose: 100.0 mg/kg/injection, schedule: Q04DX003 (ip), vehicle: water 105 % of control | dose: 200.0 mg/kg/injection, schedule: Q01DX009 (ip), vehicle: saline with Tween-80 95 % of control and 96 % of control | [3] 95 % of control | dose: 200.0 mg/kg/injection, schedule: Q04DX003 (ip), vehicle: saline with Tween-80 96 % of control | dose: 200.0 mg/kg/injection, schedule: Q04DX003 (ip), vehicle: saline 93 % of control | dose: 200.0 mg/kg/injection, schedule: Q04DX003 (ip), vehicle: water 97 % of control | dose: 400.0 mg/kg/injection, schedule: Q01DX009 (ip), vehicle: saline with Tween-80 104 % of control | dose: 400.0 mg/kg/injection, schedule: Q04DX003 (ip), vehicle: saline with Tween-80 94 % of control | dose: 400.0 mg/kg/injection, schedule: Q04DX003 (ip), vehicle: water 96 % of control

CCOC1(OCC)CC2(Cl)C(Cl)=C(Cl)C(Cl)(C3C1CC3(OCC)OCC)C2(OC)OC (centres undefined)
inactive: dose: 75.0 mg/kg/injection, schedule: Q01DX009 (ip), vehicle: Klucel (hydroxypropylcellulose) (HPC) 103 % of control | dose: 100.0 mg/kg/injection, schedule: Q01DX001 (ip), vehicle: Klucel (hydroxypropylcellulose) (HPC) 95 % of control | dose: 150.0 mg/kg/injection, schedule: Q01DX009 (ip), vehicle: Klucel (hydroxypropylcellulose) (HPC) 107 % of control | dose: 200.0 mg/kg/injection, schedule: Q01DX001 (ip), vehicle: Klucel (hydroxypropylcellulose) (HPC) 103 % of control | dose: 300.0 mg/kg/injection, schedule: Q01DX009 (ip), vehicle: Klucel (hydroxypropylcellulose) (HPC) 100 % of control | dose: 400.0 mg/kg/injection, schedule: Q01DX001 (ip), vehicle: Klucel (hydroxypropylcellulose) (HPC) 97 % of control

CC1C(O)C(O)C(C(=O)O)ON1C(=O)c1ccccc1 (centres undefined)
inactive: dose: 100.0 mg/kg/injection, schedule: Q04DX002 (ip), vehicle: saline 100 % of control | dose: 200.0 mg/kg/injection, schedule: Q04DX002 (ip), vehicle: saline 100 % of control | dose: 400.0 mg/kg/injection, schedule: Q04DX002 (ip), vehicle: saline 110 % of control

O=[N+]([O-])c1cc2cnn(CO)c2cc1[N+](=O)[O-]
inactive: dose: 100.0 mg/kg/injection, schedule: Q01DX001 (ip), vehicle: saline 95 % of control | dose: 200.0 mg/kg/injection, schedule: Q01DX001 (ip), vehicle: saline 95 % of control | dose: 400.0 mg/kg/injection, schedule: Q01DX001 (ip), vehicle: saline 100 % of control

O=S(=O)(O)CCC(O)S(=O)(=O)O (centres undefined)
inactive: dose: 100.0 mg/kg/injection, schedule: Q04DX002 (ip), vehicle: Klucel (hydroxypropylcellulose) (HPC) 98 % of control | dose: 200.0 mg/kg/injection, schedule: Q04DX002 (ip), vehicle: Klucel (hydroxypropylcellulose) (HPC) 92 % of control | dose: 400.0 mg/kg/injection, schedule: Q04DX002 (ip), vehicle: Klucel (hydroxypropylcellulose) (HPC) 92 % of control
